According to US12540120B2, “Herbicidal compounds” (SYNGENTA CROP PROTECTION AG, priority 2019, dated 2026):

Legend:
Type in all cases: in vivo
[1] = system: Amaranthus retoflexus (AMARE); test: B2 Post-Emergence Efficacy—Test 2; settings: post-emergence application, 250 g/ha, evaluated after 13 days (Test 2)
Method: (§1) B2 Post-Emergence Efficacy—Test 2 Seeds of a variety of test species are sown in standard soil in pots:—Solanum nigrum (SOLNI), Amaranthus retoflexus (AMARE), Setaria faberi (SETFA), Echinochloa crus-galli (ECHCG), Ipomoea hederacea (IPOHE), Lolium perenne (LOLPE). After 8 days cultivation (post-emergence) under controlled conditions in a glasshouse (at 24/16° C., day/night; 14 hours light; 65% humidity), the plants are sprayed with an aqueous spray solution derived from the formulation of the technical active ingredient in acetone/water (50:50) solution containing 0.5% Tween 20 (polyoxyethylene sorbitan monolaurate, CAS RN 9005-64-5). Compounds are applied at 250 g/ha. The test plants are then grown in a glasshouse under controlled conditions in a glasshouse (at 24/16° C., day/night; 14 hours light; 65% humidity) and watered twice daily. After 13 days, the test is evaluated for the percentage damage caused to the plant. The biological activities are assessed on a five point scale (5=80-100%; 4=60-79%; 3=40-59%; 2=20-39%; 1=0-19%). A blank value in the table is indicative that the compound was not tested on that species.

[2] = system: Echinochloa crus-galli (ECHCG); test: B2 Post-Emergence Efficacy—Test 2; settings: post-emergence application, 250 g/ha, evaluated after 13 days (Test 2)
Method: as §1

[3] = system: Ipomoea hederacea (IPOHE); test: B2 Post-Emergence Efficacy—Test 2; settings: post-emergence application, 250 g/ha, evaluated after 13 days (Test 2)
Method: as §1

Lolium perenne (LOLPE) [4] = test: B2 Post-Emergence Efficacy—Test 2; settings: post-emergence application, 250 g/ha, evaluated after 13 days (Test 2)
Method: as §1

Setaria faberi (SETFA) [5] = test: B2 Post-Emergence Efficacy—Test 2; settings: post-emergence application, 250 g/ha, evaluated after 13 days (Test 2)
Method: as §1

Solanum nigrum (SOLNI) [6] = test: B2 Post-Emergence Efficacy—Test 2; settings: post-emergence application, 250 g/ha, evaluated after 13 days (Test 2)
Method: as §1

[7] = system: Amaranthus retoflexus (AMARE); test: B5 Pre-Emergence Efficacy—Test 2; settings: 250 g/ha, evaluated after 13 days
Method: (§2) B5 Pre-Emergence Efficacy—Test 2 Seeds of a variety of test species were sown in standard soil in pots: Solanum nigrum (SOLNI), Amaranthus retoflexus (AMARE), Setaria faberi (SETFA), Echinochloa crus-galli (ECHCG), Ipomoea hederacea (IPOHE), Lolium perenne (LOLPE). After cultivation for one day (pre-emergence) under controlled conditions in a glasshouse (at 24/16° C., day/night; 14 hours light; 65% humidity), the plants were sprayed with an aqueous spray solution derived from the formulation of the technical active ingredient in acetone/water (50:50) solution containing 0.5% Tween 20 (polyoxyethelyene sorbitan monolaurate, CAS RN 9005-64-5). Compounds are applied at 250 g/ha. The test plants were then grown in a glasshouse under controlled conditions (at 24/16° C., day/night; 14 hours light; 65% humidity) and watered twice daily. After 13 days, the test is evaluated for the percentage damage caused to the plant. The biological activities are assessed on a five point scale (5=80-100%; 4=60-79%; 3=40-59%; 2=20-39%; 1=0-19%). A blank value in the table is indicative that the compound was not tested on that species.

Solanum nigrum (SOLNI) [8] = test: B5 Pre-Emergence Efficacy—Test 2; settings: 250 g/ha, evaluated after 13 days
Method: as §2

[9] = system: Echinochloa crus-galli (ECHCG); test: B5 Pre-Emergence Efficacy—Test 2; design: key: 5-point scale: 5=80-100%, 4=60-79%, 3=40-59%, 2=20-39%, 1=0-19% damage; settings: 250 g/ha, evaluated after 13 days
Method: as §2

[10] = system: Ipomoea hederacea (IPOHE); test: B5 Pre-Emergence Efficacy—Test 2; design: key: 5-point scale: 5=80-100%, 4=60-79%, 3=40-59%, 2=20-39%, 1=0-19% damage; settings: 250 g/ha, evaluated after 13 days
Method: as §2

Lolium perenne (LOLPE) [11] = test: B5 Pre-Emergence Efficacy—Test 2; design: key: 5-point scale: 5=80-100%, 4=60-79%, 3=40-59%, 2=20-39%, 1=0-19% damage; settings: 250 g/ha, evaluated after 13 days
Method: as §2

Setaria faberi (SETFA) [12] = test: B5 Pre-Emergence Efficacy—Test 2; design: key: 5-point scale: 5=80-100%, 4=60-79%, 3=40-59%, 2=20-39%, 1=0-19% damage; settings: 250 g/ha, evaluated after 13 days
Method: as §2

Row | Compound | percentage damage caused to the plant, five point scale, AMARE [1] | percentage damage caused to the plant, five point scale, ECHCG [2] | percentage damage caused to the plant, five point scale, IPOHE [3] | percentage damage caused to the plant, five point scale, LOLPE (Lolium perenne (LOLPE) [4]) | percentage damage caused to the plant, five point scale, SETFA (Setaria faberi (SETFA) [5]) | percentage damage caused to the plant, five point scale, SOLNI (Solanum nigrum (SOLNI) [6]) | Control of weed species after pre-emergence application, AMARE (percentage damage, five point scale) [7] | Control of weed species after pre-emergence application, SOLNI (percentage damage, five point scale) (Solanum nigrum (SOLNI) [8]) | Control of weed species after pre-emergence application, ECHCG (percentage damage, five point scale) [9] | Control of weed species after pre-emergence application, IPOHE (percentage damage, five point scale) [10] | Control of weed species after pre-emergence application, LOLPE (percentage damage, five point scale) (Lolium perenne (LOLPE) [11]) | Control of weed species after pre-emergence application, SETFA (percentage damage, five point scale) (Setaria faberi (SETFA) [12])
1 | Cc1nn(C)c(=O)c(-c2c(F)ccc(Cl)c2CCc2ccc(C3CC3)cc2)c1O [Compound A-1.038] | 5 (5=80-100%) | 5 (5=80-100%) | 5 (5=80-100%) | 5 (5=80-100%) | 5 (5=80-100%) | 5 (5=80-100%) | 5 (5=80-100%) | 5 (5=80-100%) | 5 (5=80-100%) | 2 (2=20-39%) | 5 (5=80-100%) | 0
2 | CSc1ccc(CCc2c(Cl)ccc(F)c2-c2c(O)c(C)nn(C)c2=O)cc1 [Compound A-1.039, 4-[3-chloro-6-fluoro-2-[2-(4-methylsulfanylphenyl)ethyl]-phenyl]-5-hydroxy-2,6-dimethyl-pyridazin-3-one] | 5 (5=80-100%) | 5 (5=80-100%) | 5 (5=80-100%) | 5 (5=80-100%) | 5 (5=80-100%) | 5 (5=80-100%) | 5 (5=80-100%) | 5 (5=80-100%) | 5 (5=80-100%) | 3 (3=40-59%) | 4 (4=60-79%) | 5 (5=80-100%)
3 | Cc1nn(C)c(=O)c(-c2c(F)ccc(Cl)c2CCc2ccc(C(=O)O)cc2)c1O [Compound A-1.040] | 3 (3=40-59%) | 0 | 0 | 0 | 0 | 3 (3=40-59%) | 0 | 0 | 0 | 0 | 0 | 0
4 | COC(=O)c1ccc(CCc2c(Cl)ccc(F)c2-c2c(O)c(C)nn(C)c2=O)cc1 [Compound A-1.041] | 5 (5=80-100%) | 1 (1=0-19%) | 2 (2=20-39%) | 1 (1=0-19%) | 4 (4=60-79%) | 5 (5=80-100%) | 4 (4=60-79%) | 0 | 0 | 0 | 0 | 0
5 | Cc1nn(C)c(=O)c(-c2c(F)ccc(Cl)c2CCc2ccc(NC(=O)OC(C)(C)C)c(F)c2)c1O [Compound A-1.042] | 5 (5=80-100%) | 5 (5=80-100%) | 3 (3=40-59%) | 5 (5=80-100%) | 5 (5=80-100%) | 5 (5=80-100%) | 5 (5=80-100%) | 5 (5=80-100%) | 2 (2=20-39%) | 2 (2=20-39%) | 1 (1=0-19%) | 5 (5=80-100%)
6 | CC(=O)Nc1cc(CCc2c(Cl)ccc(F)c2-c2c(O)c(C)nn(C)c2=O)ccn1 [Compound A-1.044] | 5 (5=80-100%) | 3 (3=40-59%) | 0 | 4 (4=60-79%) | 5 (5=80-100%) | 5 (5=80-100%) | 5 (5=80-100%) | 5 (5=80-100%) | 3 (3=40-59%) | 1 (1=0-19%) | 2 (2=20-39%) | 5 (5=80-100%)
7 | Cc1nc(-c2ccc(CCc3c(Cl)ccc(F)c3-c3c(O)c(C)nn(C)c3=O)cc2)cs1 [Compound A-1.383] | 5 (5=80-100%) | 5 (5=80-100%) | 5 (5=80-100%) | 5 (5=80-100%) | 5 (5=80-100%) | 5 (5=80-100%) | 5 (5=80-100%) | 5 (5=80-100%) | 4 (4=60-79%) | 5 (5=80-100%) | 3 (3=40-59%) | 4 (4=60-79%)
